Measurements reported in patent publication US7999064B2 (Abbott Medical Optics Inc., priority 2009, dated 2011).

Test system: L929 cells
Format: cell-based
Protocol: A direct overlay method which has been adopted by the FDA for MPS registration was used to evaluate the cytotoxicity profile of the PQ1 formulations. In this method, previously-soaked contact lenses (in 100 ml of the solutions to simulate overnight soak) were directly overlayed on L929 cells. The cytotoxicity result was evaluated by scoring each culture under a microscope on a relative scale of 0-4.

Polyquaternium-1 [30K PQ1]
cytotoxicity score: 2
